Counter-ions that a name gives are not always drawn.
Molecular target: influenza A neuraminidase
Test: Radiolabeled-substrate neuraminidase inhibition assay (hydrolysis of 14C-labeled αDNeuAc(2-6)βDGal(1-4)DGlcNAc, A)
Assay type: biochemical, influenza A virus
Settings: substrate A at 1.0-8.0 mM; inhibitor 0.07, 0.14, 0.28 mM; 100 mM NaOAc-5 mM Na2HPO4 pH 5.5; 37° C.; from Lineweaver-Burk plots; read-out: inhibition constant Ki
Experimental: In order to determine the effectiveness of the instant thiosialosides as neuraminidase inhibitors, incubations were performed involving the neuraminidase, the thiosialoside inhibitor and a ^14 C-labeled substrate, ^14 C-labeled αDNeuAc (2-6) βDGal (1-4) DGlcNAc (A).
Inhibition constants of the inhibitors were determined by incubating (37° C.) a solution of A at four different concentrations with the neuraminidase, in the presence or absence of the inhibitors. After the reaction, the reaction mixture was diluted with deionized water and passed through a column of Dowex resin. The column was further eluted with deionized water. Under these conditions, only the free LacNAc elutes. The eluant was diluted with Scintillation fluid (10 mL, Formula 989, NEN, MA) and the radioactivity was measured, and the amount of free LacNAc liberated was determined.
The activity of neuraminidase was measured with a radiolabeled substrate. […]
The neuraminidase concentration was 53 ug of influenza A virus in 60 uL of total reaction volume. […] The eluant was diluted with Scintillation fluid (10 mL), Formula 989, NEN, MA) and the radioactivity was measured for 2 or 5 min with a Liquid Scintillation counter. From the Lineweaver-Burk plots for the hydrolysis of A the inhibition constant Ki was calculated according to methods known in the art.

## CC(=O)N[C@H]1[C@H]([C@H](O)[C@H](O)CO)O[C@@](S[C@H](C)[C@H]2OC(O)[C@H](O)[C@@H](O)[C@H]2O)(C(=O)O)C[C@@H]1N (stereo partly drawn) [Compound 14, Sodium Salt of 5-acetamido-4-amino-2-thio-3,4,5-trideoxy-D-glycero-D-galacto-nonulopyranosylonic acid(2-S-6)-7-deoxy-α,β-D-glycero-D-galacto-heptopyranose]
  Ki: 51 µM

## CC(=O)NC1C(N)CC(OCC2OC(O)C(O)C(O)C2O)(C(=O)O)OC1C(O)C(O)CO [Compound 12, Sodium Salt of 5-acetamido-4-amino-3,4,5-trideoxy-D-glycero-D-galacto-nonulopyranosylonicacid (2-6)-α-D-galacto-pyranose]
  Ki: 100 µM
